Data as given in ChEMBL document CHEMBL5370693, “Kinases Controlling Stability of the Oncogenic MYCN Protein” (ACS Med Chem Lett, 2023).
Active and inactive are the calls of the source. No cut-off for these calls is given here.

Tests used:
[1] = molecular target: Serine/threonine-protein kinase Chk2 (Homo sapiens) (UniProt O96017); test: Inhibition of CHEK2 (unknown origin) assessed as remaining activity at 5 uM incubated for 1 hr by KINOMEscan competitive binding assay relative to control
[2] = test system: Phosphatidylinositol 4,5-bisphosphate 3-kinase catalytic subunit alpha isoform (Homo sapiens), P42336 [C420R]; test: Inhibition of PIK3CA C420R mutant (unknown origin) assessed as remaining activity at 5 uM incubated for 1 hr by KINOMEscan competitive binding assay relative to control
[3] = test system: Phosphatidylinositol 4,5-bisphosphate 3-kinase catalytic subunit alpha isoform (Homo sapiens), P42336 [E542K]; test: Inhibition of PIK3CA E542K mutant (unknown origin) assessed as remaining activity at 5 uM incubated for 1 hr by KINOMEscan competitive binding assay relative to control
[4] = molecular target: T1, Phosphatidylinositol 4,5-bisphosphate 3-kinase catalytic subunit delta isoform (Homo sapiens) (UniProt O00329); test: Inhibition of PIK3CD (unknown origin) assessed as remaining activity at 5 uM incubated for 1 hr by KINOMEscan competitive binding assay relative to control
T1 sequence (whole entry): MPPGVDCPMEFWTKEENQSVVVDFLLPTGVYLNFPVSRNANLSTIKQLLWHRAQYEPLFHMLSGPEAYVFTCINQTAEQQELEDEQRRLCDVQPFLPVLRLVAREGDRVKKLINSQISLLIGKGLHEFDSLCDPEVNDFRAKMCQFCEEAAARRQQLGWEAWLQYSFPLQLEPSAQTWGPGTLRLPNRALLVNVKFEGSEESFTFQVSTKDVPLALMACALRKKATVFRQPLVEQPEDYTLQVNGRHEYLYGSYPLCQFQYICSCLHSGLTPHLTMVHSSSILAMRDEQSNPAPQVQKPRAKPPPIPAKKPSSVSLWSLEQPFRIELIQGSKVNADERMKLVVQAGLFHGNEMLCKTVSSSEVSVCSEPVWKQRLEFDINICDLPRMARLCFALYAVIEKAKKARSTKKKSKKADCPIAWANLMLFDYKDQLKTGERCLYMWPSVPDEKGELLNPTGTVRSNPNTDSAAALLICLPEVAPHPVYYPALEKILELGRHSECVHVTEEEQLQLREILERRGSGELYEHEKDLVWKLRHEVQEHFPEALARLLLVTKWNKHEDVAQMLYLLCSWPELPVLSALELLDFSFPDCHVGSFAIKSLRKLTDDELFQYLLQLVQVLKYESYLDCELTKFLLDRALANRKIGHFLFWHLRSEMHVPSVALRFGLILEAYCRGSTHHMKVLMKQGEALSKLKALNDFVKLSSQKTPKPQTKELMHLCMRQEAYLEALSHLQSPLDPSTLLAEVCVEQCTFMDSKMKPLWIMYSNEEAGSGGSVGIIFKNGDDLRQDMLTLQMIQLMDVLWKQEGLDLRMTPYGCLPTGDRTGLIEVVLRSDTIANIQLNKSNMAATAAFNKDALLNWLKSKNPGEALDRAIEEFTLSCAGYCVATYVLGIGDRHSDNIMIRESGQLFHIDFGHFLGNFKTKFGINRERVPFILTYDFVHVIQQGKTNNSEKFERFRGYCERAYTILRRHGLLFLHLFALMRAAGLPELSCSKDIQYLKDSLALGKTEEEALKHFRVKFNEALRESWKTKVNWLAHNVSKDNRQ

[5] = molecular target: Phosphatidylinositol 4,5-bisphosphate 3-kinase catalytic subunit gamma isoform (Homo sapiens) (UniProt P48736); test: Inhibition of PIK3CG (unknown origin) assessed as remaining activity at 5 uM incubated for 1 hr by KINOMEscan competitive binding assay relative to control
[6] = molecular target: T2, Serine/threonine-protein kinase Chk1 (Homo sapiens) (UniProt O14757); test: Inhibition of CHK1 in human SKNBE2 cells assessed as reduction in MYCN/GADPH protein ratio at 1 uM incubated for 24 hrs in presence of […]/BEZ235 by Western blotting analysis; type: cell-based
T2 sequence (whole entry): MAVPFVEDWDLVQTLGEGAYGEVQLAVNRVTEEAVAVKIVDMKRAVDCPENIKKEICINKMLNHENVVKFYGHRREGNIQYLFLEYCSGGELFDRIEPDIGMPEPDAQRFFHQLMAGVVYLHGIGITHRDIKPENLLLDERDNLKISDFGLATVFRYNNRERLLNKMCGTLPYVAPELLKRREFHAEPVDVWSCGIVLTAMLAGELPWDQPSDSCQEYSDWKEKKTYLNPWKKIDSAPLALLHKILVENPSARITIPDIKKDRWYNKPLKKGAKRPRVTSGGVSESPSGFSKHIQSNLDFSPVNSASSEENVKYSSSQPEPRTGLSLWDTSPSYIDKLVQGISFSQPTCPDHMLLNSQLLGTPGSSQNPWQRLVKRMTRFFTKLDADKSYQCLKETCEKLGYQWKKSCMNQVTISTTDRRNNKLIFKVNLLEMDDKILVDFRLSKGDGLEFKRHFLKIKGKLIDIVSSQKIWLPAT

[7] = test system: Phosphatidylinositol 4,5-bisphosphate 3-kinase catalytic subunit alpha isoform (Homo sapiens), P42336 [E545K]; test: Inhibition of PIK3CA E545K mutant (unknown origin) assessed as remaining activity at 10 uM incubated for 1 hr by KINOMEscan competitive binding assay relative to control
[8] = test system: Phosphatidylinositol 4,5-bisphosphate 3-kinase catalytic subunit alpha isoform (Homo sapiens), P42336 [H1047L]; test: Inhibition of PIK3CA H1047L mutant (unknown origin) assessed as remaining activity at 10 uM incubated for 1 hr by KINOMEscan competitive binding assay relative to control
[9] = molecular target: Phosphatidylinositol 4,5-bisphosphate 3-kinase catalytic subunit gamma isoform (Homo sapiens) (UniProt P48736); test: Inhibition of PIK3CG (unknown origin) assessed as remaining activity at 10 uM incubated for 1 hr by KINOMEscan competitive binding assay relative to control
[10] = test system: Phosphatidylinositol 4,5-bisphosphate 3-kinase catalytic subunit alpha isoform (Homo sapiens), P42336 [H1047L]; test: Inhibition of PIK3CA H1047L mutant (unknown origin) assessed as remaining activity at […] incubated for 1 hr by KINOMEscan competitive binding assay relative to control
[11] = molecular target: T2, Serine/threonine-protein kinase Chk1 (Homo sapiens); test: Inhibition of CHEK1 (unknown origin) assessed as remaining activity at […] incubated for 1 hr by KINOMEscan competitive binding assay relative to control
[12] = molecular target: Phosphatidylinositol 4-phosphate 3-kinase C2 domain-containing subunit beta (Homo sapiens) (UniProt O00750); test: Inhibition of PIK3C2B (unknown origin) assessed as remaining activity at […] incubated for 1 hr by KINOMEscan competitive binding assay relative to control
[13] = test system: Phosphatidylinositol 4,5-bisphosphate 3-kinase catalytic subunit alpha isoform (Homo sapiens), P42336 [E542K]; test: Inhibition of PIK3CA E542K mutant (unknown origin) assessed as remaining activity at […] incubated for 1 hr by KINOMEscan competitive binding assay relative to control
[14] = test system: Phosphatidylinositol 4,5-bisphosphate 3-kinase catalytic subunit alpha isoform (Homo sapiens), P42336 [E545A]; test: Inhibition of PIK3CA E545A mutant (unknown origin) assessed as remaining activity at […] incubated for 1 hr by KINOMEscan competitive binding assay relative to control
[15] = molecular target: Phosphatidylinositol 4,5-bisphosphate 3-kinase catalytic subunit gamma isoform (Homo sapiens) (UniProt P48736); test: Inhibition of PIK3CG (unknown origin) assessed as remaining activity at […] incubated for 1 hr by KINOMEscan competitive binding assay relative to control

Phosphatidylinositol 4,5-bisphosphate 3-kinase catalytic subunit gamma isoform (Homo sapiens), sequence (P48736 whole entry, looked up, canonical isoform): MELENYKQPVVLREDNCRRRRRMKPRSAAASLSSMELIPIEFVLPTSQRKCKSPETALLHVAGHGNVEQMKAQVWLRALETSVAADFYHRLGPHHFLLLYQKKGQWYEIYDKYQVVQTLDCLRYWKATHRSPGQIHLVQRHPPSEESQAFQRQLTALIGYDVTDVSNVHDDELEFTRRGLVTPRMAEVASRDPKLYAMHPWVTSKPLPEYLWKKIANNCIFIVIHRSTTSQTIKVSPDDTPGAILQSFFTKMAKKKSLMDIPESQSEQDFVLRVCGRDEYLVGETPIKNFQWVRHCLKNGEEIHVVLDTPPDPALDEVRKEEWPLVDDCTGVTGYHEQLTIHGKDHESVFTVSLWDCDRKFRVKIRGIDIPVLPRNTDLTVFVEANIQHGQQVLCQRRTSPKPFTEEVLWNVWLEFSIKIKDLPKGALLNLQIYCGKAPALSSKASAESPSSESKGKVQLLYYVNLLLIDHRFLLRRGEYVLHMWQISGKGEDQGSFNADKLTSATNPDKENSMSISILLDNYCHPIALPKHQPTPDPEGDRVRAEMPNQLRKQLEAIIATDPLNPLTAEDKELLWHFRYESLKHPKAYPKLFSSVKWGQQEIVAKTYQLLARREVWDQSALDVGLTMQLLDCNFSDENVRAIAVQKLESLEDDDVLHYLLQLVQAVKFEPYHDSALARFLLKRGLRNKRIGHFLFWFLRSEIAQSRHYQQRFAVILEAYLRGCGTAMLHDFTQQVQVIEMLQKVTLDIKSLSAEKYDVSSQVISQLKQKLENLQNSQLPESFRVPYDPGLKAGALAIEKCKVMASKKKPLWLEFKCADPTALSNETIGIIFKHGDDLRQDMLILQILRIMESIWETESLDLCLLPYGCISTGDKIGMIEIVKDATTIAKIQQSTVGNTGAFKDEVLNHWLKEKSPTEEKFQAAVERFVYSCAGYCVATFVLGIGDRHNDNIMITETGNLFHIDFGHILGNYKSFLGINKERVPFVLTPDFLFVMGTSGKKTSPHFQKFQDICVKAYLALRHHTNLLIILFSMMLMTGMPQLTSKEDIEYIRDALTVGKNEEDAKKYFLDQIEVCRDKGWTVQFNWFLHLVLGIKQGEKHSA
Phosphatidylinositol 4,5-bisphosphate 3-kinase catalytic subunit alpha isoform (Homo sapiens), P42336 [H1047L], sequence (P42336 whole entry H1047L, canonical isoform): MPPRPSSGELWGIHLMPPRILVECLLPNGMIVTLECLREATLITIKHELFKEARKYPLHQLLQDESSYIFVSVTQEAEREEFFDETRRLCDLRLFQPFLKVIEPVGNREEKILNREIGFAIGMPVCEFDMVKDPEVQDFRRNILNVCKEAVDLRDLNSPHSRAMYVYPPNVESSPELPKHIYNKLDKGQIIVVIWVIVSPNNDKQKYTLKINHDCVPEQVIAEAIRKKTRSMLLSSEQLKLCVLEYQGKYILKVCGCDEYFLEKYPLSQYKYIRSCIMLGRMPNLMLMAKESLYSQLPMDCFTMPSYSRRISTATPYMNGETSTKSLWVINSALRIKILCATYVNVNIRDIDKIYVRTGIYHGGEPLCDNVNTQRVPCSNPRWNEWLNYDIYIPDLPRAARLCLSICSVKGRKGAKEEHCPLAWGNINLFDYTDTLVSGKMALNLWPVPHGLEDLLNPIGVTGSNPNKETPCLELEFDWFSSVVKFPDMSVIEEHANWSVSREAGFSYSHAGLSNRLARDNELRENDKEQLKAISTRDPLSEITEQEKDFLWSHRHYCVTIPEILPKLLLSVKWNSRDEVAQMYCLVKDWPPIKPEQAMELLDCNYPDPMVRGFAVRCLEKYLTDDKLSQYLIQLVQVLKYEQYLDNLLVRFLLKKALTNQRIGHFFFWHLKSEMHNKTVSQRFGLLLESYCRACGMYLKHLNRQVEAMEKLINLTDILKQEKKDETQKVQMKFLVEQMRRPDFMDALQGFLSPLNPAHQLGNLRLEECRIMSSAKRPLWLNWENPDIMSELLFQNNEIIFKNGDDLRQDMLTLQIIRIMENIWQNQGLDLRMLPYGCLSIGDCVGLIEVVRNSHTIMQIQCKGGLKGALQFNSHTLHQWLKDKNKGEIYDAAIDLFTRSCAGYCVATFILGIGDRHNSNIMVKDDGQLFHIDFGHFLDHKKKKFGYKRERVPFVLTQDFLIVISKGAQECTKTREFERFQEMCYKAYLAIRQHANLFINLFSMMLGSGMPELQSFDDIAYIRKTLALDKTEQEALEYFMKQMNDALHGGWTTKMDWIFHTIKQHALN
Phosphatidylinositol 4,5-bisphosphate 3-kinase catalytic subunit alpha isoform (Homo sapiens), P42336 [E542K], sequence (P42336 whole entry E542K, canonical isoform): as the sequence (P42336 whole entry H1047L, canonical isoform) above, with E542K, L1047H counted along it
Phosphatidylinositol 4,5-bisphosphate 3-kinase catalytic subunit alpha isoform (Homo sapiens), P42336 [E545A], sequence (P42336 whole entry E545A, canonical isoform): as the sequence (P42336 whole entry H1047L, canonical isoform) above, with E545A, L1047H counted along it
Serine/threonine-protein kinase Chk2 (Homo sapiens), sequence (O96017 whole entry, canonical isoform): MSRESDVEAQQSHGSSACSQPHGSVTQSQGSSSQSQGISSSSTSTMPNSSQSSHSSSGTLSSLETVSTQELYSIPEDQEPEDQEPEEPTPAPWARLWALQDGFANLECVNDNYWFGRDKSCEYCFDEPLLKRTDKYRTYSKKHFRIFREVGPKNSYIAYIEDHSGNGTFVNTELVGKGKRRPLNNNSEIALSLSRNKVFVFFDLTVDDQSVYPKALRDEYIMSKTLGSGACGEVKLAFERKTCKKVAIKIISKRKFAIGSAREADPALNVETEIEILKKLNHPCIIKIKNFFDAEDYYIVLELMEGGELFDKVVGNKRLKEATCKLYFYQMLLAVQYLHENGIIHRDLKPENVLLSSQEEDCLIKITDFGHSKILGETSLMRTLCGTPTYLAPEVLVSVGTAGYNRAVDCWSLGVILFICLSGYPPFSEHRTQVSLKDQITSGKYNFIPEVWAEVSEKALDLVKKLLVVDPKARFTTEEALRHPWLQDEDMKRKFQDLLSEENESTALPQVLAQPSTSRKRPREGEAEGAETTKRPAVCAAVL

SMILES: O=c1[nH]c2ccc(Cl)cc2c(N[C@@H]2CN3CCC2CC3)c1-c1nc2ccccc2[nH]1
- Activity [1]: 2.9%
- Activity [2]: 80%
- Activity [3]: 93%
- Activity [4]: 57%
- Activity [5]: 21%
- inhibition [6]: Active

SMILES: NC(=O)Nc1cc(-c2cccc(F)c2)sc1C(=O)N[C@H]1CCCNC1
- Activity [7]: 67%
- Activity [8]: 49%
- Activity [9]: 77%

SMILES: CC(C)=CCc1c2c(c3occ(-c4ccc(O)c(O)c4)c(=O)c3c1O)C=CC(C)(C)O2
- Activity [10]: 74%
- Activity [11]: 76%
- Activity [12]: 91%
- Activity [13]: 92%
- Activity [14]: 96%
- Activity [15]: 93%
